Assay: xn = mol fraction of the nth substance listed
Conditions: Liquid, Vibrating tube method

COc1cc2c(cc1O)CC1c3c(cc(O)c(OC)c3-2)CCN1C (stereo not given) [boldine] + CCO
Conditions | mass density [kg/m3]
342.88 K, 1000 kPa, x1 = 0.0267 | 802.49
342.88 K, 2000 kPa, x1 = 0.0267 | 803.51
342.88 K, 3000 kPa, x1 = 0.0267 | 804.51
342.88 K, 4000 kPa, x1 = 0.0267 | 805.52
342.88 K, 5000 kPa, x1 = 0.0267 | 806.51
342.88 K, 6000 kPa, x1 = 0.0267 | 807.51
342.88 K, 7000 kPa, x1 = 0.0267 | 808.51
342.88 K, 8000 kPa, x1 = 0.0267 | 809.49
342.88 K, 9000 kPa, x1 = 0.0267 | 810.47
342.88 K, 10000 kPa, x1 = 0.0267 | 811.43
342.88 K, 11000 kPa, x1 = 0.0267 | 812.4
342.88 K, 12000 kPa, x1 = 0.0267 | 813.36
342.88 K, 13000 kPa, x1 = 0.0267 | 814.3
342.88 K, 14000 kPa, x1 = 0.0267 | 815.22
342.88 K, 15000 kPa, x1 = 0.0267 | 816.14
342.88 K, 16000 kPa, x1 = 0.0267 | 817.05
342.88 K, 17000 kPa, x1 = 0.0267 | 817.95
342.88 K, 18000 kPa, x1 = 0.0267 | 818.81
342.88 K, 19000 kPa, x1 = 0.0267 | 819.68
342.88 K, 20000 kPa, x1 = 0.0267 | 820.53
342.9 K, 1000 kPa, x1 = 0.0196 | 790.39
342.9 K, 2000 kPa, x1 = 0.0196 | 791.42
342.9 K, 3000 kPa, x1 = 0.0196 | 792.45
342.9 K, 4000 kPa, x1 = 0.0196 | 793.47
342.9 K, 5000 kPa, x1 = 0.0196 | 794.49
342.9 K, 6000 kPa, x1 = 0.0196 | 795.52
342.9 K, 7000 kPa, x1 = 0.0196 | 796.52
342.9 K, 8000 kPa, x1 = 0.0196 | 797.53
342.9 K, 9000 kPa, x1 = 0.0196 | 798.53
342.9 K, 10000 kPa, x1 = 0.0196 | 799.52
342.9 K, 11000 kPa, x1 = 0.0196 | 800.49
342.9 K, 12000 kPa, x1 = 0.0196 | 801.46
342.9 K, 13000 kPa, x1 = 0.0196 | 802.42
342.9 K, 14000 kPa, x1 = 0.0196 | 803.37
342.9 K, 15000 kPa, x1 = 0.0196 | 804.3
342.9 K, 16000 kPa, x1 = 0.0196 | 805.22
342.9 K, 17000 kPa, x1 = 0.0196 | 806.13
342.9 K, 18000 kPa, x1 = 0.0196 | 807.03
342.9 K, 19000 kPa, x1 = 0.0196 | 807.91
342.9 K, 20000 kPa, x1 = 0.0196 | 808.78
342.92 K, 1000 kPa, x1 = 0.0012 | 748.44
342.92 K, 1000 kPa, x1 = 0.0074 | 761.5
342.92 K, 2000 kPa, x1 = 0.0012 | 749.56
342.92 K, 2000 kPa, x1 = 0.0074 | 762.58
342.92 K, 3000 kPa, x1 = 0.0012 | 750.65
342.92 K, 3000 kPa, x1 = 0.0074 | 763.66
342.92 K, 4000 kPa, x1 = 0.0012 | 751.76
342.92 K, 4000 kPa, x1 = 0.0074 | 764.73
342.92 K, 5000 kPa, x1 = 0.0012 | 752.85
342.92 K, 5000 kPa, x1 = 0.0074 | 765.81
342.92 K, 6000 kPa, x1 = 0.0012 | 753.94
342.92 K, 6000 kPa, x1 = 0.0074 | 766.87
342.92 K, 7000 kPa, x1 = 0.0012 | 755.02
342.92 K, 7000 kPa, x1 = 0.0074 | 767.93
342.92 K, 8000 kPa, x1 = 0.0012 | 756.1
342.92 K, 8000 kPa, x1 = 0.0074 | 768.98
342.92 K, 9000 kPa, x1 = 0.0012 | 757.16
342.92 K, 9000 kPa, x1 = 0.0074 | 770.04
342.92 K, 10000 kPa, x1 = 0.0012 | 758.21
342.92 K, 10000 kPa, x1 = 0.0074 | 771.07
342.92 K, 11000 kPa, x1 = 0.0012 | 759.27
342.92 K, 11000 kPa, x1 = 0.0074 | 772.09
342.92 K, 12000 kPa, x1 = 0.0012 | 760.3
342.92 K, 12000 kPa, x1 = 0.0074 | 773.12
342.92 K, 13000 kPa, x1 = 0.0012 | 761.33
342.92 K, 13000 kPa, x1 = 0.0074 | 774.1
342.92 K, 14000 kPa, x1 = 0.0012 | 762.33
342.92 K, 14000 kPa, x1 = 0.0074 | 775.1
342.92 K, 15000 kPa, x1 = 0.0012 | 763.33
342.92 K, 15000 kPa, x1 = 0.0074 | 776.07
342.92 K, 16000 kPa, x1 = 0.0012 | 764.31
342.92 K, 16000 kPa, x1 = 0.0074 | 777.04
342.92 K, 17000 kPa, x1 = 0.0012 | 765.26
342.92 K, 17000 kPa, x1 = 0.0074 | 777.98
342.92 K, 18000 kPa, x1 = 0.0012 | 766.22
